Results reported in patent US10030056B2, “Agents for preventing and treating HIV and other viral infections” (priority 2013, dated 2018).
Non-standard residues stand in square brackets, D forms with d. No end group written: not given here.

How the values were obtained:
HIV-1 [1] = tested on: HIV-1
Excerpt: So as to analyze the effect of the amyloidogenic inhibitor D3 as a potential therapeutic agent for reducing amyloid peptide-promoted retroviral propagation, adherently growing TZM-bl cells were infected with HIV-1. These cells express the HIV-1 receptors CD4, CXCR4 and CCR5, which is why they are permissive both for T-tropic and M-tropic HIV isolates. […] The TZM-bl indicator cell line thus allows a quantitative analysis of HIV infection efficiency.
D3 was composed of amino acids of the D-enantiomeric form. Forty-eight hours after infection, the TZM-bl cells were washed with PBS, fixed by adding formaldehyde/glutaraldehyde, and subsequently washed again. The β-galactosidase-induced blue coloration of the cells was carried out by incubation overnight with a X-Gal solution. The coloring solution was removed the following day, the fixed cells were washed again with PBS and analyzed for blue coloration by way of optical microscopy. Since these reporter cells also express luciferase, in addition to the β-galactosidase, proportionally with the infection rate, this effect could also be determined quantitatively. […] After adding luciferase substrate solution, the light intensity at the 560 nm wavelength created by the oxidation of luciferin, which, in turn, is catalyzed by the firefly luciferase enzyme, was measured. […]

[2] = tested on: HIV-1 laboratory strain NL4-3 PI 952; assay: Infectivity of HIV-1 NL4-3 PI 952 in TZM-bl cells with 6 μg/ml SEVI fibrils, luciferase activity (FIG. 4, Table 1); format: cell-based; conditions: for luciferase activity of infected cells, mean value: 6 μg/ml SEVI fibrils, 48 hours after infection, HIV + SEVI control 7264.0, HIV + PBS 579.0; for lowering of the increased infectivity of the viruses caused by fibrils associated with SEVI: summary of Table 1 / FIG. 4
Method: The test approach was broken down as follows: The reporter cell line TZM-bl was incubated with the HIV-1 laboratory strain NL4-3 PI 952 in the presence of 6 μg/ml SEVI fibrils (fibril-forming PAP fragments isolated from semen; semen derived enhancer of virus infection). The fibrils were pre-Incubated with or without D3 and D3D3 (0.5 and 5 μg/ml, respectively) prior to infection. The infection efficiency was determined by measuring the luciferase activity (introduced by a luciferase gene coded in the laboratory strain) of the infected cells 48 hours after infection (Table 1: Results of FIG. 4).

HIV-1 [3] = tested on: HIV-1; remark: listed apart in the source
Excerpt: So as to analyze the effect of the amyloidogenic inhibitor D3 as a potential therapeutic agent for reducing amyloid peptide-promoted retroviral propagation, adherently growing TZM-bl cells were infected with HIV-1. […] The TZM-bl indicator cell line thus allows a quantitative analysis of HIV infection efficiency.
D3 was composed of amino acids of the D-enantiomeric form. Forty-eight hours after infection, the TZM-bl cells were washed with PBS, fixed by adding formaldehyde/glutaraldehyde, and subsequently washed again. The β-galactosidase-induced blue coloration of the cells was carried out by incubation overnight with a X-Gal solution. The coloring solution was removed the following day, the fixed cells were washed again with PBS and analyzed for blue coloration by way of optical microscopy. Since these reporter cells also express luciferase, in addition to the β-galactosidase, proportionally with the infection rate, this effect could also be determined quantitatively. For this purpose, the cells were infected in the same manner and, after being washed twice with PBS, were lysed using 1× passive lysis buffer (PLB). After adding luciferase substrate solution, the light intensity at the 560 nm wavelength created by the oxidation of luciferin, which, in turn, is catalyzed by the firefly luciferase enzyme, was measured. […]

[4] = number of cells colored in blue and measured light intensity

| Substance | decrease in number of infected cells compared to the untreated cells with SEVI fibrils (HIV-1 [1]; 0.5 μg/ml D3, SEVI fibrils, TZM-bl cells, FIG. 2C) | reduction of infection rate promoted by SEVI (HIV-1 [1]; [4]) | luciferase activity of infected cells, mean value ([2]; 0.5 μg/ml peptide) | luciferase activity of infected cells, mean value ([2]; 5 μg/ml peptide) | lowering of the increased infectivity of the viruses caused by fibrils associated with SEVI [2] | decrease in number of infected cells compared to the untreated cells with amyloid-beta fibrils (HIV-1 [3]; 5 μg/ml D3, Aβ1-42 fibrils 50 μg/ml, TZM-bl cells, FIG. 2D) | reduction of infection rate promoted by Aβ (HIV-1 [3]; [4]) |
| --- | --- | --- | --- | --- | --- | --- | --- |
| rprtrlhthrnr ([dR][dP][dR][dT][dR][dL][dH][dT][dH][dR][dN][dR]) [D3] | approximately 60% | considerably reduce | 7112.7 | 4368.0 | approximately 80% | approximately 90% | considerably reduce |
| rprtrlhthrnrrprtrlhthrnr ([dR][dP][dR][dT][dR][dL][dH][dT][dH][dR][dN][dR][dR][dP][dR][dT][dR][dL][dH][dT][dH][dR][dN][dR]) [D3D3, dimer of two D3 monomer units] | – | – | 5529.7 | 1321.0 | approximately 80% | – | – |
